The text below walks through data of patent US20240415819A1, “MACROCYCLIC COMPOUNDS AS PROTEASOME SUBUNIT BETA TYPE-5 INHIBITORS” (Lead Discovery Center GmbH, priority 2021, published 2024).

The test deals with hPMBC. As to the kind of experiment: Chymotrypsin-like ProteasomeGlo assay in hPBMC. It counts as cell-based. As to conditions: Homo sapiens; read-out: Pglo hPBMC. The source says:
Chymotrypsin-like ProteasomeGlo assay in the B-cells isolated from PBMC's following compound addition (IC50). • 1. PBMC's will be isolated from human blood followed by B-cell isolation from the PBMC's using the Miltenyi Isolation Kit. • 2. This experiment will use the Chymotrypsin-like ProteasomeGlo read-out to generate IC50's following compound treatment. • 3. Dilute all compounds 1:100 for the assay. • 4. […] Repeat the DMSO transfer with lane 12. • 5. Lane 12 should not be seeded with any cells. Only medium! • 6. For all steps, make sure the samples and reagents remain cool! • 7. While dealing with the buffy coats, be careful to not let any exposed skin to be in direct contact with the blood.
For the initial steps and to make processing the buffy coats easier, separately process the buffy coats. • a. Cut the tube attached to the buffy coats carefully using a clean, sterile and fresh scalpel. • b. Transfer the blood into 2 individual 50 ml falcons. • c. Add an equal volume of DPBS to the blood in the falcons. • d. Add ˜20 ml of lymphocyte separating medium to two 50 ml falcons. • e. Carefully pour 15-20 ml of the blood+DPBS mix from step c. onto the lymphocyte separating medium from step d. • f. Centrifuge the falcons with the lymphocyte separating medium+blood mix at 800×g for 15 minutes using a swing-out rotor. • g. Following centrifugation, carefully remove the falcons from the centrifuge. • h. The following layers will be observed: • i. Aspirate the plasma layer off carefully without disturbing the different layers. • j. Remove the cell pellet using a pipette into two fresh 50 ml falcons. • k. Fill the falcons with the cells up to 50 ml with DPBS. • l. Centrifuge the falcons at 250×g for 10 minutes using a swing-out rotor (Brake-off). • m. Aspirate the complete DPBS off the cells without disturbing the cell pellet at the bottom of the falcon. • n. Re-suspend the cell pellet in 10 ml of 1×RBC lysis buffer. • o. Incubate the falcons at room temperature in the dark for 10 minutes. • p. After RBC lysis, centrifuge the tubes at 250×g for 10 minutes using a swing-out rotor (brake-off). • (*Note: If the cell pellet is still red or light red, repeat steps n. to p.!) • q. Re-suspend the cell pellet in DPBS up to 50 ml in the falcon. • r. Centrifuge the falcons at 250×g for 10 minutes using a swing-out rotor (Brake-off). • s. Aspirate the DPBS off the cells without disturbing the cell pellet at the bottom of the falcon. • t. Repeat the wash step as described in steps q. to s. 2× times more (total number of washes is 3×). • u. Aspirate the DPBS completely off the cell pellet after the last wash without disturbing the cell pellet. • v. Re-suspend the cell pellet in 20 ml of PBMC cell medium. • w.
• a. Remove the plates with cells from the incubator. • b. Take all the plates including the compound plate, intermediate plate and Staurosporine plate to the ECHO. • c. Click on “Open” in the ECHO software and select the protocol “QLI5_25ul_30 uM-Grenier”. • d. Follow the on-screen prompts and instructions once you click “Start” to insert the compound plate, intermediate plate and destination plates. • e. Change the final number of destination plates on the program. • f. Follow the on-screen prompts and instructions once you click “Start” to load the Staurosporine and destination plates. • g. Once all the compounds, DMSO and Staurosporine have been transferred, place the destination plates in a wet tissue box. • h. Place the destination plates back into the incubator and incubate at 37° C., 5% CO2 for 105 minutes. • i. Re-seal all the compound+Stauro diamond and intermediate plates and store in the dark. Chymotrypsin like ProteasomeGlo Assay • 1. Thaw the components of the ProteasomeGlo assay at room temperature including the ProteasomeGlo Buffer, the lyophilized Luciferin Detection Reagent and the Suc-LLVY-Glo Substrate. • 2. […]
For the molecule `Cc1ccc2cc1CNC(=O)[C@H](CCc1ccccc1)NC(=O)[C@@H](NC(=O)Cc1cnc(N)s1)CC(=O)N1CCCC(CCO2)C1` (stereo partly drawn) [Compound 311, 2-(2-aminothiazol-5-yl)-N-((9S,12S)-5^4-methyl-8,11,14-trioxo-9-phenethyl-4-oxa-7,10-diaza-1(3,1)-piperidina-5(1,3)-benzenacyclotetradecaphane-12-yl)acetamide], the IC50 was under 100 nM.

For the molecule `CC(=O)c1ccc(CC(=O)N[C@H]2CC(=O)N3CCCC(CCOc4ccc(C)c(c4)CNC(=O)[C@H](CCc4ccccc4)NC2=O)C3)cc1` (stereo partly drawn) [Compound 341, 2-(4-acetylphenyl)-N-((9S,12S)-54-methyl-8,11,14-trioxo-9-phenethyl-4-oxa-7,10-diaza-1(3,1)-piperidina-5(1,3)-benzenacyclotetradecaphane-12-yl)acetamide], the IC50 is under 100 nM.

Regarding `Cc1n[nH]c(CC(=O)N[C@H]2CC(=O)N3CCCC(CCOc4ccc(C)c(c4)CNC(=O)[C@H](CCc4ccccc4)NC2=O)C3)n1` (stereo partly drawn) [Compound 332, 2-(3-methyl-1H-1,2,4-triazol-5-yl)-N-((9S,12S)-5^4-methyl-8,11,14-trioxo-9-phenethyl-4-oxa-7,10-diaza-1(3,1)-piperidina-5(1,3)-benzenacyclotetradecaphane-12-yl)acetamide], the IC50 was under 100 nM.

`Cc1ccc2cc1CNC(=O)[C@H](CCc1ccccc1)NC(=O)[C@@H](NC(=O)C(C)c1ccc(N)cc1)CC(=O)N1CCCC(CCO2)C1` (stereo partly drawn) [Compound 309, 2-(4-aminophenyl)-N-((9S,12S)-5^4-methyl-8,11,14-trioxo-9-phenethyl-4-oxa-7,10-diaza-1(3,1)-piperidina-5(1,3)-benzenacyclotetradecaphane-12-yl)propanamide]: the IC50 is under 100 nM.

For the molecule `CC(=O)N[C@H]1CC(=O)N2CCCC(CCOc3ccc(C)c(c3)CNC(=O)C(c3cnn(C)c3)NC1=O)C2` (stereo partly drawn) [Compound 552, N-((12S)-5^4-methyl-9-(1-methyl-1H-pyrazol-4-yl)-8,11,14-trioxo-4-oxa-7,10-diaza-1(3,1)-piperidina-5(1,3)-benzenacyclotetradecaphane-12-yl)acetamide], the IC50 was under 100 nM.

`CCOC(=O)N[C@H]1CC(=O)N2CCCC(CCOc3ccc(C)c(c3)CNC(=O)C(c3cnn(C)c3)NC1=O)C2` (stereo partly drawn) [Compound 363, Ethyl ((12S)-5^4-methyl-9-(1-methyl-1H-pyrazol-4-yl)-8,11,14-trioxo-4-oxa-7,10-diaza-1(3,1)-piperidina-5(1,3)-benzenacyclotetradecaphane-12-yl)carbamate]: the IC50 is under 100 nM.

With `CC(=O)N[C@H]1CC(=O)N2CCCC(CCOc3ccc(C)c(c3)CNC(=O)C(CCC3CCN(C(C)=O)CC3)NC1=O)C2` (stereo partly drawn) [Compound 338, N-((12S)-9-(2-(1-acetylpiperidin-4-yl)ethyl)-5^4-methyl-8,11,14-trioxo-4-oxa-7,10-diaza-1(3,1)-piperidina-5(1,3)-benzenacyclotetradecaphane-12-yl)acetamide], the IC50 was under 100 nM.

With `Cc1ccc2cc1CNC(=O)C(CCc1ccccc1)NC(=O)[C@@H](NC(=O)OCc1ccccc1)CC(=O)N1CCCC(CCO2)C1` (stereo partly drawn) [Compound 503, benzyl ((12S)-9-phenethyl-5^4-methyl-8,11,14-trioxo-4-oxa-7,10-diaza-1(3,1)-piperidina-5(1,3)-benzenacyclotetradecaphane-12-yl)carbamate], the IC50 fell in the range of 100 to 500 nM.

As to `Cc1ccc2cc1CNC(=O)[C@H](CCc1ccccc1)NC(=O)[C@@H](NC(=O)OCc1ccccc1)CCC(=O)N1CCC(CCO2)C1` (stereo partly drawn) [Compound 350, benzyl ((9S,12S)-5^4-methyl-8,11,15-trioxo-9-phenethyl-4-oxa-7,10-diaza-1(3,1)-pyrrolidina-5(1,3)-benzenacyclopentadecaphane-12-yl)carbamate], the IC50 is under 100 nM.

`Cc1ccc2cc1CNC(=O)C(CCc1cnccn1)NC(=O)[C@@H](NC(=O)Cc1ccc(N)cc1F)CC(=O)N1CCCC(CCO2)C1` (stereo partly drawn) [Compound 372, 2-(4-amino-2-fluorophenyl)-N-((9S,12S)-5^4-methyl-8,11,14-trioxo-9-(2-(pyrazin-2-yl)ethyl)-4-oxa-7,10-diaza-1(3,1)-piperidina-5(1,3)-benzenacyclotetradecaphane-12-yl) acetamide]: the IC50 is under 100 nM.

Regarding `Cc1ccc2cc1CNC(=O)C(CCc1ccncc1)NC(=O)[C@@H](NC(=O)Cc1nnc(N)s1)CC(=O)N1CCCC(CCO2)C1` (stereo partly drawn) [Compound 342, 2-(5-amino-1,3,4-thiadiazol-2-yl)-N-((12S)-5^4-methyl-8,11,14-trioxo-9-(2-(pyridin-4-yl)ethyl)-4-oxa-7,10-diaza-1(3,1)-piperidina-5(1,3)-benzenacyclotetradecaphane-12-yl)acetamide], the IC50 is under 100 nM.

Consider `Cc1ccc2cc1CNC(=O)[C@H](CCc1ccccc1)NC(=O)[C@@H](NC(=O)OCc1ccccc1)CCCC(=O)N1CCC(CCO2)C1` (stereo partly drawn) [Compound 352, benzyl ((9S, 12S)-5^4-methyl-8,11,16-trioxo-9-phenethyl-4-oxa-7,10-diaza-1(3,1)-pyrrolidina-5(1,3)-benzenacyclohexadecaphane-12-yl)carbamate], for which the IC50 lay within 100 to 500 nM.

With `Cc1ccc2cc1CNC(=O)C(CCc1ccncc1)NC(=O)[C@@H](NC(=O)Cc1ccc(N)cc1F)CC(=O)N1CCCC(CCO2)C1` (stereo partly drawn) [Compound 344, 2-(4-amino-2-fluorophenyl)-N-((12S)-5^4-methyl-8,11,14-trioxo-9-(2-(pyridin-4-yl)ethyl)-4-oxa-7,10-diaza-1(3,1)-piperidina-5(1,3)-benzenacyclotetradecaphane-12-yl)acetamide], the IC50 was under 100 nM.

On to `COC(=O)N(CC1NC(=O)[C@@H](NC(=O)OCc2ccccc2)CC(=O)N2CCCC(CCOc3ccc(C)c(c3)CNC1=O)C2)c1ccccc1` (stereo partly drawn) [Compound 513, methyl (((12R)-12-(((benzyloxy)carbonyl)amino)-5^4-methyl-8,11,14-trioxo-4-oxa-7,10-diaza-1(3,1)-piperidina-5(1,3)-benzenacyclotetradecaphane-9-yl)methyl)(phenyl)carbamate], for which the IC50 was under 100 nM.

As for `Cc1ccc2cc1CNC(=O)C(CCc1ccncc1)NC(=O)[C@@H](NC(=O)OCc1ccccc1)CC(=O)N1CCCC(CCO2)C1` (stereo partly drawn) [Compound 336, benzyl ((12S)-5^4-methyl-8,11,14-trioxo-9-(2-(pyridin-4-yl)ethyl)-4-oxa-7,10-diaza-1(3,1)-piperidina-5(1,3)-benzenacyclotetradecaphane-12-yl)carbamate], the IC50 is under 100 nM.

For `Cc1ccc2cc1CNC(=O)[C@H](CCc1ccccc1)NC(=O)[C@@H](NC(=O)Cc1nnc(N)s1)CC(=O)N1CCCC(CCO2)C1` (stereo partly drawn) [Compound 310, 2-(5-amino-1,3,4-thiadiazol-2-yl)-N-((9S,12S)-54-methyl-8,11,14-trioxo-9-phenethyl-4-oxa-7,10-diaza-1(3,1)-piperidina-5(1,3)-benzenacyclotetradecaphane-12-yl)acetamide], the IC50 was under 100 nM.

Take `Cc1ccc2cc1CNC(=O)[C@H](CCc1ccccc1)NC(=O)[C@@H](NC(=O)OCc1ccccc1)CC(=O)N1CCCC(CCO2)C1` (stereo partly drawn) [Compound 7, benzyl ((9S,12S)-5^4-methyl-8,11,14-trioxo-9-phenethyl-4-oxa-7,10-diaza-1(3,1)-piperidina-5(1,3)-benzenacyclotetradecaphane-12-yl)carbamate]: the IC50 is under 100 nM.

Regarding `Cc1ccc2cc1CNC(=O)[C@H](CCc1ccccc1)NC(=O)[C@@H](NC(=O)OCc1ccccc1)CCCCC(=O)N1CC(CCO2)C1` [Compound 353, benzyl ((9S,12S)-5^4-methyl-8,11,17-trioxo-9-phenethyl-4-oxa-7,10-diaza-1(3,1)-azetidina-5(1,3)-benzenacycloheptadecaphane-12-yl)carbamate], the IC50 is under 100 nM.
